Data as given in patent publication US11534398B2, “Inhaled preparation of isoglycyrrhizic acid or salt thereof, and use in preparing drugs for treating respiratory system diseases” (priority 2016, dated 2022).

Test system: tracheal secretion in mice
Experiment: Mouse phenol red excretion assay (tracheal secretion)
Type: in vivo, ICR mice
Details: 1.0 g/kg/d*6 d, i.g. 6 d
Protocol: 50 male ICR mice, weighing about 21 g, were randomly divided into 5 groups: control group 1 (normal saline, NS), control group 2 (normal saline, NS), positive control group (ammonium chloride, 1 g/kg), drug group 1 (0.2 mg/ml of magnesium isoglycyrrhizinate liquid preparation for use in nebulizers, nebulizing for 30 min), drug group 2 (0.2 mg/ml of magnesium isoglycyrrhizinate liquid preparation for use in nebulizers, nebulizing for 15 min). The mice in control group 1 and the positive control group were intragastrically administered with the corresponding drugs (0.1 ml/10 g), the mice in control group 2 and the drug group 1 were aerosolizing administered with a nebulizer for 30 min, while the mice in drug group 2 were 15 min. The administration frequency was once a day for 6 consecutive days. Before the 6th administration, the mice were starved for 16-18 hours, only allowed for drinking water. After 30 minutes of administration, i.p. 1% phenol red physiological in saline solution 0.2 ml/10 g was injected and 30 minutes later, the mice were killed by cervical dislocation. […] Among them, each drug group was compared with the control group 2, ^ΔΔp<0.01.

Cl.N [ammonium chloride]
Amount of phenol red excretion: 0.5924 ± 0.3781 µg/mL
